Test results as given in patent US10124022B2, “Compositions and methods for enhancing the effectiveness of systemic, HIPEC, IP, and related cancer treatments” (ChemoTherapeutics, LLC, priority 2010, dated 2018).
Values joined by “and” are separate entries in the source; they are usually repeats but may differ in a detail not shown here. Identical values can stand only once. Like-named read-outs stand apart in the source and are kept apart here.

Legend:
HCT-116 cells [1] = test: MTS cell viability assay, drugs ± one-hour hyperthermia, cytotoxicity measured after three days (Studies 1-6);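 as to all read-outs here: Drug-treated HCT-116 cells held one hour at 42 °C (hyperthermia) or 37 °C, then cultured at 37 °C, viability read by MTS in triplicate wells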; details: for GI50: HCT-116 cells; for GI50 / % cell survival / growth inhibition at the concentrations tested / growth promoting effect / cell survival: three days; for effect on the cytotoxicity caused by Selenite: Study 6, FIG. 6c; for cell survival: 200 nM
Procedure: For each study, two plates of HCT-116 cells were seeded in 96-well cell culture plates (2000 cells per well for three-day studies and 10,000 cells for one-day studies). The next day, drugs prepared in 200 μl of culture medium were added to the wells. […] Each treatment was completed in triplicate. One plate was incubated at 37° C. while the other plate was incubated at 42° C. (hyperthermia) for one hour (two hours for study 7 and 8). After the treatment, 4000 freshly harvested cells (cells which were not subjected to hyperthermia) were added to 3 wells of each plate to assess the effect of hyperthermia (for one-day experiments, 20,000 cells will be added). Both plates were incubated at 37° C. for the number of days specified in each study. Cell viability was measured using MTS assay (Promega CellTiter 96 Aqueous MTS Assay reagents).
Cytotoxicity was measured after three days.
The non-chemotherapeutic agent combinations tested were: Vitamin C/Selenite and Vitamin C/Selenite/Quercetin. Cytotoxicity was measured after three days.
The non-chemotherapeutic agent combinations tested were: Vitamin E/Selenite/Quercetin and Selenite/Quercetin. Cytotoxicity was measured after three days.
Tested the cytotoxic effects of combination treatments (±hyperthermia at 42° C. for one hour) with chemotherapeutic reagents (Mitomycin C at 0.2 and 0.8 μM or Cisplatin at 2.5 and 10 μM) and four non-chemotherapeutic reagents (100 nM Vitamin D, 40 μM Vitamin E, 20 μM Selenite and 150 μNA Quercetin). The non-chemotherapeutic agent combinations tested were: Quercetin/Vitamin D/Vitamin E/Selenite, Vitamin E/Selenite, and Vitamin D/Vitamin E/Selenite. Cytotoxicity was measured after three days.
The non-chemotherapeutic agent combinations tested were: Vitamin C/Selenite, Vitamin C/Quercetin, Selenite/Quercetin and Vitamin C/Selenite/Quercetin. Cytotoxicity was measured after three days.

HCT-116 cells [2] = test: MTS assay, two-hour drug treatment, drugs replaced with fresh medium, measured after one day (Study 7b); details: FIG. 7b
Procedure: For each study, two plates of HCT-116 cells were seeded in 96-well cell culture plates (2000 cells per well for three-day studies and 10,000 cells for one-day studies). The next day, drugs prepared in 200 μl of culture medium were added to the wells. […] Each treatment was completed in triplicate. One plate was incubated at 37° C. while the other plate was incubated at 42° C. (hyperthermia) for one hour (two hours for study 7 and 8). After the treatment, 4000 freshly harvested cells (cells which were not subjected to hyperthermia) were added to 3 wells of each plate to assess the effect of hyperthermia (for one-day experiments, 20,000 cells will be added). […] Cell viability was measured using MTS assay (Promega CellTiter 96 Aqueous MTS Assay reagents).
Tested the short-term cytotoxic effects of combination treatments (±hyperthermia at 42° C. for two hour) with chemotherapeutic reagents (0.2 μM Mitomycin C or 10 μM Cisplatin) and three non-chemotherapeutic reagents (1.25 mM Vitamin C, 20 μM Selenite and 150 μM Quercetin). […] Cytotoxicity was measured with MTS assay immediately after the two-hour drug/hyperthermia treatment. • b. […] Drugs were replaced with fresh medium after the treatment, and the cytotoxic effect was measured after one day. • c. Cells were incubated with drugs for one day before the cytotoxicity was measured.

[3] = Study 5, no chemotherapeutic, 100 nM Vitamin D, 40 μM Vitamin E, 20 μM Selenite, 150 μM Quercetin as named, 37° C.
[4] = Study 5, no chemotherapeutic, 100 nM Vitamin D, 40 μM Vitamin E, 20 μM Selenite, 150 μM Quercetin as named, 42° C. 1 hr
[5] = Study 4, no chemotherapeutic, 40 μM Vitamin E, 20 μM Selenite, 150 μM Quercetin as named, 37° C.
[6] = Study 4, no chemotherapeutic, 40 μM Vitamin E, 20 μM Selenite, 150 μM Quercetin as named, 42° C. 1 hr
[7] = read-out: Growth inhibition (GI50)

Compound: O=C1O[C@H]([C@@H](O)CO)C(O)=C1O [Vitamin C]
- GI50 (HCT-116 cells [1]): ~2000 µM
- % cell survival (HCT-116 cells [1]; Study 2, 0.08 mM, 37° C.): 102%
- % cell survival (HCT-116 cells [1]; Study 2, 0.08 mM, 42° C. 1 hr): 92.6%
- % cell survival (HCT-116 cells [1]; Study 2, 0.31 mM, 37° C.): 97.6%
- % cell survival (HCT-116 cells [1]; Study 2, 0.31 mM, 42° C. 1 hr): 89%
- effect on the cytotoxicity caused by Selenite (HCT-116 cells [1]): did not appear to modulate the cytotoxicity caused by Selenite

Compound: O=c1c(O)c(-c2ccc(O)c(O)c2)oc2cc(O)cc(O)c12 [Quercetin]
- % cell survival (HCT-116 cells [1]; Study 2, 20 μM, 37° C.): 129%
- % cell survival (HCT-116 cells [1]; Study 2, 20 μM, 42° C. 1 hr): 118%
- % cell survival (HCT-116 cells [1]; Study 2, 100 μM, 37° C.): 123%
- % cell survival (HCT-116 cells [1]; Study 2, 100 μM, 42° C. 1 hr): 111%
- growth inhibition at the concentrations tested (HCT-116 cells [1]; Study 2): did not show significant growth inhibition
- growth promoting effect (HCT-116 cells [1]; Study 2): slight growth promoting effect at the lower concentrations tested
- cancer cell killing without chemotherapeutic agent, compared to the agents alone (HCT-116 cells [1]; Study 3, FIG. 3b): did not show enhanced killing
- effect on cytotoxicity of the co-administered treatment (HCT-116 cells [1]; Study 4, FIG. 4b-4d): reduced the cytotoxicity of Selenite
- effect on cytotoxicity of the co-administered treatment (HCT-116 cells [1]; Study 5, FIG. 5b-5e): reduced the cytotoxicity of Selenite/Vit-D/Vit-E
- % cell survival (HCT-116 cells [1]; [3]): 98.0%
- % cell survival (HCT-116 cells [1]; [4]): 89.5%
- effect on the cytotoxicity caused by Selenite (HCT-116 cells [1]): reduced the cytotoxicity caused by Selenite

Compound: Vitamin E
- % cell survival (HCT-116 cells [1]; Study 2, 0.32 μM, 37° C.): 111%
- % cell survival (HCT-116 cells [1]; Study 2, 0.32 μM, 42° C. 1 hr): 95.5%
- % cell survival (HCT-116 cells [1]; Study 2, 1.6 μM, 37° C.): 116%
- % cell survival (HCT-116 cells [1]; Study 2, 1.6 μM, 42° C. 1 hr): 102%
- growth promoting effect (HCT-116 cells [1]; Study 2): slight growth promoting effect at the lower concentrations tested for 37 °C treated group
- % cell survival (HCT-116 cells [1]; [5]): 105.7%
- % cell survival (HCT-116 cells [1]; [6]): 81.6%
- % cell survival (HCT-116 cells [1]; [3]): 112.2%
- % cell survival (HCT-116 cells [1]; [4]): 95.5%
- GI50 (HCT-116 cells [1]; [7]): ~90 µM

Compound: CO[C@@]12[C@H](COC(N)=O)C3=C(C(=O)C(C)=C(N)C3=O)N1C[C@@H]1N[C@@H]12 [Mitomycin C, reference compound]
- % cell survival (HCT-116 cells [1]; Study 3, 0.2 μM Mitomycin C, alone or with 1.25 mM Vitamin C, 20 μM Selenite as named, 37° C.): 35%
- % cell survival (HCT-116 cells [1]; Study 3, 0.2 μM Mitomycin C, alone or with 1.25 mM Vitamin C, 20 μM Selenite as named, 42° C. 1 hr): 36.9%
- % cell survival (HCT-116 cells [1]; Study 3, 0.8 μM Mitomycin C, alone or with 1.25 mM Vitamin C, 20 μM Selenite as named, 37° C.): 16.9%
- % cell survival (HCT-116 cells [1]; Study 3, 0.8 μM Mitomycin C, alone or with 1.25 mM Vitamin C, 20 μM Selenite as named, 42° C. 1 hr): 15.5%
- % cell survival (HCT-116 cells [1]; Study 4, 0.2 μM Mitomycin C, alone or with 40 μM Vitamin E, 20 μM Selenite, 150 μM Quercetin as named, 37° C.): 33.3%
- % cell survival (HCT-116 cells [1]; Study 4, 0.2 μM Mitomycin C, alone or with 40 μM Vitamin E, 20 μM Selenite, 150 μM Quercetin as named, 42° C. 1 hr): 36.5%
- % cell survival (HCT-116 cells [1]; Study 4, 0.8 μM Mitomycin C, alone or with 40 μM Vitamin E, 20 μM Selenite, 150 μM Quercetin as named, 37° C.): 16.4%
- % cell survival (HCT-116 cells [1]; Study 4, 0.8 μM Mitomycin C, alone or with 40 μM Vitamin E, 20 μM Selenite, 150 μM Quercetin as named, 42° C. 1 hr): 22.1%
- GI50 (HCT-116 cells [1]; [7]): 1.3 µM

Compound: N.N.[Cl][Pt][Cl] [Cisplatin, reference compound]
- % cell survival (HCT-116 cells [1]; Study 4, 2.5 μM Cisplatin, alone or with 40 μM Vitamin E, 20 μM Selenite, 150 μM Quercetin as named, 37° C.): 74.7%
- % cell survival (HCT-116 cells [1]; Study 4, 2.5 μM Cisplatin, alone or with 40 μM Vitamin E, 20 μM Selenite, 150 μM Quercetin as named, 42° C. 1 hr): 61.7%
- % cell survival (HCT-116 cells [1]; Study 4, 10 μM Cisplatin, alone or with 40 μM Vitamin E, 20 μM Selenite, 150 μM Quercetin as named, 37° C.): 37.5%
- % cell survival (HCT-116 cells [1]; Study 4, 10 μM Cisplatin, alone or with 40 μM Vitamin E, 20 μM Selenite, 150 μM Quercetin as named, 42° C. 1 hr): 37.5%
- % cell survival (HCT-116 cells [1]; Study 5, 2.5 μM Cisplatin, alone or with 100 nM Vitamin D, 40 μM Vitamin E, 20 μM Selenite, 150 μM Quercetin as named, 37° C.): 86.1%
- % cell survival (HCT-116 cells [1]; Study 5, 2.5 μM Cisplatin, alone or with 100 nM Vitamin D, 40 μM Vitamin E, 20 μM Selenite, 150 μM Quercetin as named, 42° C. 1 hr): 76.0%
- % cell survival (HCT-116 cells [1]; Study 5, 10 μM Cisplatin, alone or with 100 nM Vitamin D, 40 μM Vitamin E, 20 μM Selenite, 150 μM Quercetin as named, 37° C.): 52.1%
- % cell survival (HCT-116 cells [1]; Study 5, 10 μM Cisplatin, alone or with 100 nM Vitamin D, 40 μM Vitamin E, 20 μM Selenite, 150 μM Quercetin as named, 42° C. 1 hr): 41.9%
- GI50 (HCT-116 cells [1]; [7]): 12 µM
- cancer cell killing after 2 hours of treatment, cell survival measured one day later (HCT-116 cells [2]): additional killing effect

Compound: Vitamin D
- cell survival (HCT-116 cells [1]; Study 2, 37° C.): 122%
- cell survival (HCT-116 cells [1]; Study 2, 42° C. 1 hr): 110%
- growth inhibition at the concentrations tested (HCT-116 cells [1]; Study 2): did not show significant growth inhibition
- growth promoting effect (HCT-116 cells [1]; Study 2): slight growth promoting effect at the higher concentrations tested

Compound: O=[Se](O)O [Selenite]
- effect of hyperthermia treatment on cell growth (HCT-116 cells [1]; Study 2, 42° C. 1 hr vs 37° C.): No significant effect
- % cell survival (HCT-116 cells [1]; [5]): 45%
- % cell survival (HCT-116 cells [1]; [6]): 39.7% and 39.8%
- % cell survival (HCT-116 cells [1]; [3]): 42.6%
- % cell survival (HCT-116 cells [1]; [4]): 32.9%
- GI50 (HCT-116 cells [1]; [7]): ~30 µM
